Data: publication PMC12590356, “Novel pyrrolo[2,1-a]isoquinoline aryl ketones attenuate carbon nanotube-induced acute lung injury through NF-κB pathway inhibition” (RSC Advances, 2025)
Where two headings read alike, the source gives them in different places.

Experiments:
[1] = CCK8 cell viability (cytotoxicity) assay; type: cell-based, murine; conditions: mouse, RAW264.7 cells, means ± SD (n = 3)
Method: The toxic effect of synthesized compounds was evaluated on RAW264.7 cells utilizing a CCK8 assay kit.
RAW264.7 cells were seeded in 96-well plates and incubated with various compounds, each at a uniform concentration of 50 μM, for 24 h. Following this incubation, CCK8 was added to the 96-well plates and incubated at 37 °C for 1 h. The control group was cultivated solely in fresh medium. The absorbance at 450 nm was quantified using an enzyme marker.

[2] = test system: LPS-induced NO production in RAW 264.7 cells; assay: LPS-induced NO production (Griess reagent); type: cell-based, murine; design: NO inhibition rate: dose or concentration left out as unconfirmed; key to Inhibition of LPS-induced NO production, result in words (na / tox): na: no activity at the concentration of 40 μM; toxicity; conditions: for IC50: Mus musculus, RAW264.7, LPS 500 ng/mL 24 h, read-out: IC50, inhibition of LPS-induced NO production; for IC50 / NO inhibition rate: Griess reagent, means ± SD (n = 3); for Inhibition of LPS-induced NO production, result in words (na / tox): na at 40 μM
Method: Despite extensive research efforts focused on the treatment ALI, no specific drugs have been identified thus far. In the quest to discover innovative anti-inflammatory drugs for ALI treatment, we assessed the anti-inflammatory potential of pyrrolo[2,1-a]isoquinoline aryl ketones were evaluated through their capacity to suppress LPS-induced NO release in RAW264.7 cells.[21,28] Griess reagent was used to quantify the levels of LPS-induced NO release in RAW264.7 cells following treatment with the synthesized compounds.
The quantification of NO production in activated RAW264.7 cells was achieved by measuring the concentration of nitrite, which serves as a stable oxidative metabolite of NO, employing a previously established protocol.[37] RAW264.7 cells were cultured overnight in 48-well plates at a cellular density of 5 × 10^4 cells per milliliter. […] Briefly, Griess reagents I and II were mixed with 50 μL of the culture medium supernatant, and the resultant mixture was analyzed spectrophotometrically at a wavelength of 540 nm using an automated microplate reader. The NO inhibition rate was calculated using the following formula: NO inhibition rate = [(OD540 − compound OD540)/(OD540 − blank OD540)] × 100%.

PPAR-δ = test system: PPAR-δ; design: method as in PMID 22489042; conditions: cited from earlier work
COX-2 = conditions: cited from earlier work
PPAR-α = test system: PPAR-α; design: method as in PMID 22489042; conditions: cited from earlier work
PPAR-γ = test system: PPAR-γ; design: method as in PMID 22489042; conditions: cited from earlier work
COX-1 = test system: COX-1; design: method as in PMID 32358780, PMID 30243628; conditions: cited from earlier work

SMILES | viability at 24 h, 50 µM [1] [%] | NO inhibition rate [2] [%] | further results
COC(=O)c1ccc2c3ccccc3ccn12 [3a] | 92.4 ± 6.3 |  | IC50 [2]: 19.9 ± 0.71 µM
CC(C)(C)OC(=O)c1ccc2c3ccccc3ccn12 [3b] | 95.6 ± 2.9 | 42.0 ± 4.2 | 
N#Cc1ccc2c3ccccc3ccn12 [3c] | 97.1 ± 2.6 | 46.9 ± 1.8 | 
O=C(c1ccccc1)c1ccc2c3ccccc3ccn12 [3d] | 96.8 ± 6.6 | 48.0 ± 1.3 | 
COc1ccc(C(=O)c2ccc3c4ccccc4ccn23)cc1 [3e] | 88.7 ± 5.8 |  | 
Cc1ccc(C(=O)c2ccc3c4ccccc4ccn23)cc1 [3f] | 53.6 ± 6.4 |  | Inhibition of LPS-induced NO production, result in words (na / tox) [2]: tox
O=C(c1ccc(Cl)cc1)c1ccc2c3ccccc3ccn12 [3h] | 101 ± 3 | 39.6 ± 5.3 | 
O=C(c1ccc(Br)cc1)c1ccc2c3ccccc3ccn12 [3i] | 95.9 ± 7.7 |  | 
O=C(c1ccc(C(F)(F)F)cc1)c1ccc2c3ccccc3ccn12 [3j] | 89.9 ± 5.6 |  | 
O=C(c1ccccc1Cl)c1ccc2c3ccccc3ccn12 [3l] | 99.3 ± 8.8 | 38.2 ± 5.1 | 
O=C(c1ccccc1O)c1ccc2c3ccccc3ccn12 [3m] | 46.4 ± 6.5 |  | Inhibition of LPS-induced NO production, result in words (na / tox) [2]: tox
Cc1cccc(C(=O)c2ccc3c4ccccc4ccn23)c1 [3n] |  | 46.8 ± 3.1 | 
O=C(c1cccc(Cl)c1)c1ccc2c3ccccc3ccn12 [3o] | 91.5 ± 8.5 | 39.2 ± 7.1 | 
O=C(c1ccc2ccccc2c1)c1ccc2c3ccccc3ccn12 [3p] | 93.2 ± 4.7 |  | 
C=C(C)[C@@H]1CC[C@]2(C(=O)O)CC[C@]3(C)[C@H](CC[C@@H]4[C@@]5(C)CC[C@H](O)C(C)(C)[C@@H]5CC[C@]43C)[C@@H]12 [Betulinic acid, reference compound] | 85.8 ± 7.4 |  | IC50 [2]: 11.9 ± 1.3 µM
CC(C)(Oc1ccc(C(=O)c2ccc(Cl)cc2)cc1)C(=O)O [Fenofibric acid] |  |  | EC50 (PPAR-δ): […]; IC50 (COX-2; read-out: IC50, COX-2 inhibitory activity): 0.048 µM; EC50 (PPAR-α): […]; EC50 (PPAR-γ): […]
CC(C(=O)O)c1cccc(C(=O)c2ccccc2)c1 (stereo not shown) [Ketoprofen] |  |  | IC50 (COX-2; read-out: IC50 for COX-2): 0.026 µM; IC50 (COX-1): 0.002 µM
